According to the supplement of paper PMC13380429:

How the values were obtained:
Settings in all cases: 72 h
Caco-2 [1] = experiment: cell viability relative to DMSO; higher = less toxic
Calu-3 [2] = experiment: as above
HepG2 [3] = experiment: as above
U2OS [4] = experiment: as above
Caco-2 [5] = experiment: relative viability EC50 (midpoint between 100% and the lowest measured viability); higher = less toxic
Calu-3 [6] = experiment: as above
HepG2 [7] = experiment: as above
U2OS [8] = experiment: as above
Caco-2 [9] = experiment: drug sensitivity score (DSS) for viability; higher = more toxic; extreme values may be limits of the assay
Calu-3 [10] = experiment: as above
HepG2 [11] = experiment: as above
U2OS [12] = experiment: as above
Vero E6 [13] = experiment: cell viability relative to DMSO; higher = less toxic
Vero E6 [14] = experiment: relative viability EC50 (midpoint between 100% and the lowest measured viability); higher = less toxic
Vero E6 [15] = experiment: drug sensitivity score (DSS) for viability; higher = more toxic; extreme values may be limits of the assay

SMILES	cell viability (Caco-2 [1]; 1 nM) [%]	cell viability (Caco-2 [1]; 10 nM) [%]	cell viability (Caco-2 [1]; 100 nM) [%]	cell viability (Caco-2 [1]; 1000 nM) [%]	cell viability (Caco-2 [1]; 10000 nM) [%]	cell viability (Calu-3 [2]; 1 nM) [%]	cell viability (Calu-3 [2]; 10 nM) [%]	cell viability (Calu-3 [2]; 100 nM) [%]	cell viability (Calu-3 [2]; 1000 nM) [%]	cell viability (Calu-3 [2]; 10000 nM) [%]	cell viability (HepG2 [3]; 1 nM) [%]	cell viability (HepG2 [3]; 10 nM) [%]	cell viability (HepG2 [3]; 100 nM) [%]	cell viability (HepG2 [3]; 1000 nM) [%]	cell viability (HepG2 [3]; 10000 nM) [%]	cell viability (U2OS [4]; 1 nM) [%]	cell viability (U2OS [4]; 10 nM) [%]	cell viability (U2OS [4]; 100 nM) [%]	cell viability (U2OS [4]; 1000 nM) [%]	cell viability (U2OS [4]; 10000 nM) [%]	relative viability EC50 (Caco-2 [5]) [µM]	relative viability EC50 (Calu-3 [6]) [µM]	relative viability EC50 (HepG2 [7]) [µM]	relative viability EC50 (U2OS [8]) [µM]	drug sensitivity score (Caco-2 [9])	drug sensitivity score (Calu-3 [10])	drug sensitivity score (HepG2 [11])	drug sensitivity score (U2OS [12])	cell viability (Vero E6 [13]; 1 nM) [%]	cell viability (Vero E6 [13]; 10 nM) [%]	cell viability (Vero E6 [13]; 100 nM) [%]	cell viability (Vero E6 [13]; 1000 nM) [%]	cell viability (Vero E6 [13]; 10000 nM) [%]	relative viability EC50 (Vero E6 [14]) [µM]	drug sensitivity score (Vero E6 [15])
Cc1c(OCC(F)(F)F)ccnc1C[S+]([O-])c1nc2ccccc2[nH]1 (centres undefined) [lansoprazole]	99.7	94.3	96.6	97	92.6	93.1	107	95.1	107	92.3	104	96.8	96.1	92.1	96.5	94.8	101	93	93.8	93.8	> 10	> 10	> 10	> 10	0	0	0	0							
CC(C)Nc1nc2cc(Cl)c(Cl)cc2n1[C@H]1O[C@@H](CO)[C@H](O)[C@@H]1O [maribavir]	96.9	98.9	97.3	99.5	91	96.4	112	106	101	102	106	104	110	107	97.9	97.7	101	92.1	102	93.7	> 10	> 10	> 10	> 10	0	0	0	0							
CC12CC3CC(C)(C1)CC(N)(C3)C2 [memantine]	102	91.8	90.3	96.9	96.9	101	98.8	98.3	99.7	87.1						97.3	96.4	96.6	99.6	98.9	> 10	> 10		> 10	0	0.1		0	106	99.1	105	102	96.6	> 10	0
CCCCCCCCCCCCCC(=O)[O-].CCCCCCCCCCCCCC(=O)[O-].N[C@@H]1CCCC[C@H]1N.[Pt+2] [miriplatin]	102	93.5	98.1	91.2	104	90.9	101	104	99.2	87.4	105	101	106	97.1	92.1	100	97.7	99.2	95.4	99.3	> 10	> 10	> 10	> 10	0	0.1	0	0							
O=C(O)/C=C/c1ccc(O)cc1 [naringeninic-acid]	88	91.5	86.1	104	85.4	93.2	109	100	109	108	92	108	97.5	96.8	94	102	103	98.9	106	101	> 10	> 10	> 10	> 10	0.1	0	0	0							
CCc1nn(CCCN2CCN(c3cccc(Cl)c3)CC2)c(=O)n1CCOc1ccccc1 [nefazodone]	96.4	95.3	100	99.8	86.3	103	94.6	96.7	96.3	96.8	93.2	91.5	95.7	97.6	70.8	106	100	101	99	97.4	> 10	> 10		> 10	0.1	0	1.6	0	95.6	101	97.5	102	96.6	> 10	0
COCCOC(=O)C1=C(C)NC(C)=C(C(=O)OC(C)C)C1c1cccc([N+](=O)[O-])c1 (centres undefined) [nimodipine]	98.4	93.4	87.8	98.1	91.5	101	98.2	104	96.7	97.8						97.2	97.8	104	97.8	95.9	> 10	> 10		> 10	0	0		0	98.6	100	103	102	88.1	> 10	0
N#Cc1ccc(-c2csc(NN=C3CCCC3)n2)cc1 [remodelin]	95.5	99.7	94.8	103	76.6	102	102	96.3	116	93	105	97.2	109	92.3	73.1	98.3	102	99.3	105	95.5	> 10	> 10		> 10	0.7	0	2.2	0	98.3	103	102	99.2	105	> 10	0
O=C(O)c1cc(/N=N/c2ccc(S(=O)(=O)Nc3ccccn3)cc2)ccc1O [sulfasalazine]	108	99.5	89.9	96.6	112	101	102	102	104	91.5						98.6	99.1	97.4	102	98.1	> 10	> 10		> 10	0	0		0	104	103	107	98.7	97.6	> 10	0
CCOC(=O)N1CSC[C@H]1C(=O)O [telmesteine]	109	93.6	100	90.2	95.5	97.9	91	94.8	107	102	101	109	105	90.1	88.9	97.1	100	99.2	96.4	99	> 10	> 10	> 10	> 10	0	0	0.2	0							
C=C(NC(=O)C(=C)NC(=O)c1csc(C2=N[C@@H]3c4csc(n4)[C@H]4NC(=O)c5csc(n5)[C@H]([C@](C)(O)[C@@H](C)O)NC(=O)[C@H]5CSC(=N5)/C(=C/C)NC(=O)[C@H]([C@@H](C)O)NC(=O)c5csc(n5)[C@]3(CC2)NC(=O)[C@H](C)NC(=O)C(=C)NC(=O)[C@H](C)NC(=O)[C@H]([C@@H](C)CC)N[C@@H]2C=Cc3c([C@H](C)O)cc(nc3[C@H]2O)C(=O)O[C@@H]4C)n1)C(N)=O [thiostrepton]	102	89.3	89.5	82.9	96.9	101	95	97.8	99.1	110	111	102	81	87.6	84.5	100	94	95.8	75.3	93.6	> 10	> 10	> 10	> 10	0.2	0	4.3	0.7							
CCCS(=O)(=O)Nc1ccc(F)c(C(=O)c2c[nH]c3ncc(-c4ccc(Cl)cc4)cc23)c1F [vemurafenib]	109	97.3	117	107	77	102	105	106	95.8	90.1	113	103	98.3	107	54.5	96.6	100	95.2	104	86.8	> 10	> 10		> 10	0.5	0	1.9	0.1	106	104	100	111	91.7	> 10	0
